In brackets after ≈: the same amount, converted by molar mass. Like-named read-outs stand apart in the source and are kept apart here.
Assays:
[1] = in vivo; conditions: mouse, ip
Excerpt: (§3) Such signs included convulsions and Straub tail(vertical righting of the tail).

[2] = test system: Swiss mice; assay: Acute toxicity in Swiss mice i.p.; conditions: for LD0: Swiss mice i.p.
Excerpt: as §3

[3] = test system: C. albicans 15; assay: MIC, comparative in vitro testing against Martin compounds; type: cell-based; conditions: Casitone medium
Procedure: (§1) Minimum Inhibitory Concentrations (MICS) of Sertaconazole were also measured in comparison to four of the compounds described in the Martin Patent, including a compound, referred to herein as Martin Compound 1, which has the same structure as Sertaconazole, expect that the sulfur in the benzothiophene ring is replaced by an oxygen.
(§2) The results of comparative in vitro testing of Sertaconazole and these four Martin compounds are shown in the following Table II against 16 microorganisms. The reading time is the time interval from the time of inoculation to the time of measurement.

[4] = test system: C. guillermondii; assay: as above; type: cell-based; conditions: read-out: MIC
Procedure: as §1, §2

[5] = test system: C. parapsilosis 19; assay: as above; type: cell-based
Procedure: as §1, §2

[6] = test system: C. tropicalis 25; assay: as above; type: cell-based; conditions: YNB medium
Procedure: as §1, §2

[7] = test system: C. albicans 32; assay: as above; type: cell-based; conditions: Candida albicans, 32, YNB medium, read-out: MIC
Procedure: as §1, §2

[8] = test system: C. albicans 31; assay: as above; type: cell-based; conditions: Candida albicans, 31, YNB medium, read-out: MIC
Procedure: as §1, §2

[9] = test system: C. stellatoidea 36232; assay: as above; type: cell-based
Procedure: as §1, §2

[10] = test system: C. krusei 24; assay: as above; type: cell-based; conditions: read-out: MIC
Procedure: as §1, §2

[11] = test system: C. albicans ATCC E-10231; assay: as above; type: cell-based; conditions: Candida albicans, ATCCE10231, Casitone medium, read-out: MIC
Procedure: as §1, §2

[12] = test system: C. pseudotropicalis 21; assay: as above; type: cell-based; conditions: Kluyveromyces marxianus, 21, Sabouraud medium, read-out: MIC
Procedure: as §1, §2

[13] = test system: C. albicans 14; assay: as above; type: cell-based; conditions: Casitone medium
Procedure: as §1, §2

[14] = test system: 16 microorganisms; assay: Geometric mean of all MIC measurements, comparative in vitro testing; type: cell-based; conditions: read-out: Geometric means of MIC
Procedure: as §1, §2

[15] = test system: Swiss mice; conditions: mouse, in vivo
Excerpt: as §3

## Clc1ccc(C(Cn2ccnc2)OCc2coc3c(Cl)cccc23)c(Cl)c1 (centres unmarked) [Martin compound 1, reference compound]
[1]
  LD50: 518 mg/kg
[2]
  LD0: 285 mg/kg
[2]; mice
  signs of intoxication in the central nervous system (convulsions and Straub tail): evident signs of intoxication in the central nervous system
[3]; Candida albicans, 15, 60 h, reading time 60 h, SZ vs M1
  MIC: 1 µg/mL (≈ 2.37 µM)
[4]; 60 h, Casitone medium, reading time 60 h, SZ vs M1
  MIC: 0.5 µg/mL (≈ 1.19 µM)
[4]; 60 h, YNB medium, reading time 60 h, SZ vs M1
  MIC: 0.5 µg/mL (≈ 1.19 µM)
[5]; 19, 60 h, Sabouraud medium, reading time 60 h, SZ vs M1
  MIC: 1 µg/mL (≈ 2.37 µM)
[5]; 19, 60 h, YNB medium, reading time 60 h, SZ vs M1
  MIC: 0.5 µg/mL (≈ 1.19 µM)
[6]; Candida tropicalis, 25, 60 h, reading time 60 h, SZ vs M1
  MIC: 8 µg/mL (≈ 19 µM)
[7]; reading time 60 h, SZ vs M1
  MIC: 8 µg/mL (≈ 19 µM)
[8]; reading time 60 h, SZ vs M1
  MIC: 8 µg/mL (≈ 19 µM)
[9]; Candida albicans, 36232, 60 h, Casitone medium, reading time 60 h, SZ vs M1
  MIC: 0.5 µg/mL (≈ 1.19 µM)
[9]; Candida albicans, 36232, 60 h, Sabouraud medium, reading time 60 h, SZ vs M1
  MIC: 1 µg/mL (≈ 2.37 µM)
[9]; Candida albicans, 36232, 60 h, YNB medium, reading time 60 h, SZ vs M1
  MIC: 4 µg/mL (≈ 9.49 µM)
[10]; Pichia kudriavzevii, 24, 60 h, Casitone medium, reading time 60 h, SZ vs M1
  MIC: 1 µg/mL (≈ 2.37 µM)
[10]; Pichia kudriavzevii, 24, 60 h, YNB medium, reading time 60 h, SZ vs M1
  MIC: 0.25 µg/mL (≈ 0.593 µM)
[11]; reading time 60 h, SZ vs M1
  MIC: 2 µg/mL (≈ 4.74 µM)
[12]; reading time 60 h, SZ vs M1
  MIC: 0.03 µg/mL (≈ 0.0711 µM)
[13]; Candida albicans, 14, 60 h, reading time 60 h, SZ vs M1
  MIC: 2 µg/mL (≈ 4.74 µM)
[14]; 60 h, SZ vs M1, reading time 60 h
  MIC: 1.09 µg/mL (≈ 2.58 µM)

## Clc1ccc(C(Cn2ccnc2)OCc2coc3cc(Cl)ccc23)c(Cl)c1 (centres unmarked) [Martin compound 2, reference compound]
[1]
  LD50: 640 mg/kg
[2]
  LD0: 235 mg/kg
[3]; Candida albicans, 15, 48 h, reading time 48 h, SZ vs M2
  MIC: 0.06 µg/mL (≈ 0.142 µM)
[4]; 48 h, Casitone medium, reading time 48 h, SZ vs M2
  MIC: 0.5 µg/mL (≈ 1.19 µM)
[4]; 48 h, YNB medium, reading time 48 h, SZ vs M2
  MIC: 0.5 µg/mL (≈ 1.19 µM)
[5]; 19, 48 h, Sabouraud medium, reading time 48 h, SZ vs M2
  MIC: 1 µg/mL (≈ 2.37 µM)
[5]; 19, 48 h, YNB medium, reading time 48 h, SZ vs M2
  MIC: 1 µg/mL (≈ 2.37 µM)
[6]; Candida tropicalis, 25, 48 h, reading time 48 h, SZ vs M2
  MIC: 8 µg/mL (≈ 19 µM)
[7]; reading time 48 h, SZ vs M2
  MIC: 4 µg/mL (≈ 9.49 µM)
[8]; reading time 48 h, SZ vs M2
  MIC: 4 µg/mL (≈ 9.49 µM)
[9]; Candida albicans, 36232, 48 h, Casitone medium, reading time 48 h, SZ vs M2
  MIC: 0.06 µg/mL (≈ 0.142 µM)
[9]; Candida albicans, 36232, 48 h, Sabouraud medium, reading time 48 h, SZ vs M2
  MIC: 0.5 µg/mL (≈ 1.19 µM)
[9]; Candida albicans, 36232, 48 h, YNB medium, reading time 48 h, SZ vs M2
  MIC: 1 µg/mL (≈ 2.37 µM)
[10]; Pichia kudriavzevii, 24, 48 h, Casitone medium, reading time 48 h, SZ vs M2
  MIC: 0.05 µg/mL (≈ 0.119 µM)
[10]; Pichia kudriavzevii, 24, 48 h, YNB medium, reading time 48 h, SZ vs M2
  MIC: 0.5 µg/mL (≈ 1.19 µM)
[11]; reading time 48 h, SZ vs M2
  MIC: 0.5 µg/mL (≈ 1.19 µM)
[12]; reading time 48 h, SZ vs M2
  MIC: 0.06 µg/mL (≈ 0.142 µM)
[13]; Candida albicans, 14, 48 h, reading time 48 h, SZ vs M2
  MIC: 0.25 µg/mL (≈ 0.593 µM)
[14]; 48 h, SZ vs M2, reading time 48 h
  MIC: 0.565 µg/mL (≈ 1.34 µM)

## Clc1ccc(C(Cn2ccnc2)OCc2cc3cc(Cl)ccc3o2)c(Cl)c1 (centres unmarked) [Martin compound 3, reference compound]
[1]
  LD50: 640 mg/kg
[15]
  mice with generalized pulmonary edema and congestion: 80%
  signs of intoxication in the central nervous system (convulsions and Straub tail): evident signs of intoxication in the central nervous system
[15]; ip
  LD0: 423 mg/kg
[3]; Candida albicans, 15, 48 h, reading time 48 h, SZ vs M3
  MIC: 0.06 µg/mL (≈ 0.142 µM)
[4]; 48 h, Casitone medium, reading time 48 h, SZ vs M3
  MIC: 0.25 µg/mL (≈ 0.593 µM)
[4]; 48 h, YNB medium, reading time 48 h, SZ vs M3
  MIC: 0.25 µg/mL (≈ 0.593 µM)
[5]; 19, 48 h, Sabouraud medium, reading time 48 h, SZ vs M3
  MIC: 0.5 µg/mL (≈ 1.19 µM)
[5]; 19, 48 h, YNB medium, reading time 48 h, SZ vs M3
  MIC: 1 µg/mL (≈ 2.37 µM)
[6]; Candida tropicalis, 25, 48 h, reading time 48 h, SZ vs M3
  MIC: 8 µg/mL (≈ 19 µM)
[7]; reading time 48 h, SZ vs M3
  MIC: 4 µg/mL (≈ 9.49 µM)
[8]; reading time 48 h, SZ vs M3
  MIC: 4 µg/mL (≈ 9.49 µM)
[9]; Candida albicans, 36232, 48 h, Casitone medium, reading time 48 h, SZ vs M3
  MIC: 0.125 µg/mL (≈ 0.296 µM)
[9]; Candida albicans, 36232, 48 h, Sabouraud medium, reading time 48 h, SZ vs M3
  MIC: 0.5 µg/mL (≈ 1.19 µM)
[9]; Candida albicans, 36232, 48 h, YNB medium, reading time 48 h, SZ vs M3
  MIC: 4 µg/mL (≈ 9.49 µM)
[10]; Pichia kudriavzevii, 24, 48 h, Casitone medium, reading time 48 h, SZ vs M3
  MIC: 0.125 µg/mL (≈ 0.296 µM)
[10]; Pichia kudriavzevii, 24, 48 h, YNB medium, reading time 48 h, SZ vs M3
  MIC: 0.25 µg/mL (≈ 0.593 µM)
[11]; reading time 48 h, SZ vs M3
  MIC: 0.5 µg/mL (≈ 1.19 µM)
[12]; reading time 48 h, SZ vs M3
  MIC: 0.03 µg/mL (≈ 0.0711 µM)
[13]; Candida albicans, 14, 48 h, reading time 48 h, SZ vs M3
  MIC: 0.5 µg/mL (≈ 1.19 µM)
[14]; 48 h, SZ vs M3, reading time 48 h
  MIC: 0.497 µg/mL (≈ 1.18 µM)

## Clc1ccc(C(Cn2ccnc2)OCc2csc3c(Cl)cccc23)c(Cl)c1 (centres unmarked) [Sertaconazole nitrate]
[15]; ip
  LD0: 2000 mg/kg
  LD50: 8000 mg/kg

Reference: US5135943A, “1H-imidazole derivative compounds and pharmaceutical compositions containing the same” (priority 1984, dated 1992)
